# System: IL-1β release from THP-1 cells
# Test: IL-1β Release Assay (Alternate Method), THP-1 cells
# Format: cell-based, human
# Settings: Homo sapiens; at 0.3 μM; THP-1 cells; read-out: IL-1β % inhibition
# Outline: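 THP-1 cells differentiated 16 h with 100 ng/mL LPS plus 100 ng/mL IFN-γ, reprimed 2 h with 100 ng/mL LPS, pretreated 30 min with compound, then challenged 45 min with 250 uM BzATP (final). Supernatant IL-1β quantified by ELISA; percent inhibition from background-adjusted levels versus untreated cells.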
row,Structure (SMILES),inhibition at 0.3 µM
1,CC(C)(C(=O)Nc1ncnc2c1CCN(C(=O)c1c(F)cccc1F)C2)C12CC3CC(CC(C3)C1)C2 [Compound 361],0 to 25%
2,O=C(NCC12CC3CC(CC(C3)C1)C2)c1ncnc2c1CCN(Cc1ccc(F)cc1F)C2 [Compound 137],50 to 75%
3,"COCC(O)CN1CCc2c(ncnc2NC(=O)CC23CC4CC(CC(C4)C2)C3)C1 (stereo not drawn) [Compound 13, 2-adamantan-1-yl-N-[7-(2-hydroxy-3-methoxy-propyl)-5,6,7,8-tetrahydro-pyrido[3,4-d]pyrimidin-4-yl]-acetamide]",0 to 25%

# Same assay, conditions: at 0.3 μM; THP-1 cells
row,Structure (SMILES),IL-1β % inhibition
1,Cc1noc(C)c1S(=O)(=O)N1CCc2c(ncnc2NC(=O)CC23CC4CC(CC(C4)C2)C3)C1 [Compound 169],++ (compound exhibited 25-50% inhibition at 0.3 μM)
2,CC(C)(C(=O)Nc1ncnc2c1CCN(Cc1ccccc1F)C2)C12CC3CC(CC(C3)C1)C2 [Compound 369],+ (compound exhibited 0-25% inhibition at 0.3 μM)
3,O=C(CC12CC3CC(CC(C3)C1)C2)Nc1ncnc2c1CCN(Cc1ccc(Cl)c(F)c1)C2 [Compound 329],+++ (compound exhibited 50-75% inhibition at 0.3 μM)
4,O=C(CC12CC3CC(CC(C3)C1)C2)Nc1ncnc2c1CCN(C(=O)Cc1ccc(F)cc1)C2 [Compound 241],+++ (compound exhibited 50-75% inhibition at 0.3 μM)
5,O=C(NCC12CC3CC(CC(C3)C1)C2)c1ncnc2c1CCN(Cc1ccccc1F)C2 [Compound 139],++ (compound exhibited 25-50% inhibition at 0.3 μM)
6,Cc1noc(C)c1C(=O)N1CCc2c(ncnc2NC(=O)CC23CC4CC(CC(C4)C2)C3)C1 [Compound 297],+ (compound exhibited 0-25% inhibition at 0.3 μM)
7,O=C(NCC1CCCCC1)c1ncnc2c1CCN(Cc1ccccc1Cl)C2 [Compound 50],+ (compound exhibited 0-25% inhibition at 0.3 μM)
8,O=C(CC12CC3CC(CC(C3)C1)C2)Nc1ncnc2c1CCN(S(=O)(=O)c1cc(F)ccc1F)C2 [Compound 203],+ (compound exhibited 0-25% inhibition at 0.3 μM)
9,O=C(CC12CC3CC(CC(C3)C1)C2)Nc1ncnc2c1CCN(Cc1ccc(C(F)(F)F)cc1C(F)(F)F)C2 [Compound 327],+ (compound exhibited 0-25% inhibition at 0.3 μM)
10,O=C(CC12CC3CC(CC(C3)C1)C2)Nc1ncnc2c1CCN(Cc1cccc(F)c1)C2 [Compound 33],+ (compound exhibited 0-25% inhibition at 0.3 μM)
11,CC(C)(C(=O)Nc1ncnc2c1CCN(Cc1ccccc1Cl)C2)C12CC3CC(CC(C3)C1)C2 [Compound 348],+ (compound exhibited 0-25% inhibition at 0.3 μM)
12,CC12CC3CC(C)(C1)CC(C(C)(C)C(=O)Nc1ncnc4c1CCN(Cc1ccccc1)C4)(C3)C2 [Compound 343],+ (compound exhibited 0-25% inhibition at 0.3 μM)
13,CC12CC3CC(C)(C1)CC(CC(=O)Nc1ncnc4c1CCN(Cc1ccccc1Cl)C4)(C3)C2 [Compound 370],++ (compound exhibited 25-50% inhibition at 0.3 μM)
14,CC(C)(C(=O)Nc1ncnc2c1CCN(C(=O)c1cccc(Cl)c1Cl)C2)C12CC3CC(CC(C3)C1)C2 [Compound 364],+ (compound exhibited 0-25% inhibition at 0.3 μM)
15,O=C(CC12CC3CC(CC(C3)C1)C2)Nc1ncnc2c1CCN(CC1CCCC1)C2 [Compound 121],+ (compound exhibited 0-25% inhibition at 0.3 μM)
16,O=C(NCC12CC3CC(CC(C3)C1)C2)c1ncnc2c1CCN(Cc1ccc(F)cc1)C2 [Compound 338],++++ (compound exhibited 75% or greater inhibition at 0.3 μM)
17,O=C(CC12CC3CC(CC(C3)C1)C2)Nc1ncnc2c1CCN(C(=O)c1cccc(C(F)(F)F)c1)C2 [Compound 233],++++ (compound exhibited 75% or greater inhibition at 0.3 μM)
18,Cc1nn(C)c(C)c1S(=O)(=O)N1CCc2c(ncnc2NC(=O)CC23CC4CC(CC(C4)C2)C3)C1 [Compound 198],+ (compound exhibited 0-25% inhibition at 0.3 μM)
19,O=C(CC12CC3CC(CC(C3)C1)C2)Nc1ncnc2c1CCN(Cc1cccc3c1OC(F)(F)O3)C2 [Compound 90],+ (compound exhibited 0-25% inhibition at 0.3 μM)
20,O=C(CC12CC3CC(CC(C3)C1)C2)Nc1ncnc2c1CCN(Cc1ccc3c(c1)Cc1ccccc1-3)C2 [Compound 318],+ (compound exhibited 0-25% inhibition at 0.3 μM)
21,O=C(NCCc1ccccc1)c1ncnc2c1CCNC2 [Compound 3],+ (compound exhibited 0-25% inhibition at 0.3 μM)
22,O=C(CC12CC3CC(CC(C3)C1)C2)Nc1ncnc2c1CCN(Cc1c(F)cccc1C(F)(F)F)C2 [Compound 111],++ (compound exhibited 25-50% inhibition at 0.3 μM)
23,CC12CC3CC(C)(C1)CC(CC(=O)Nc1ncnc4c1CCN(C(=O)c1c(F)cccc1Cl)C4)(C3)C2 [Compound 389],++ (compound exhibited 25-50% inhibition at 0.3 μM)

# Same assay, conditions: at 0.3 μM; THP-1 cells, BzATP-stimulated
row,Structure (SMILES),IL-1β % inhibition
1,O=C(Nc1ncnc2c1CCN(S(=O)(=O)c1ccc(Oc3ccccc3)cc1)C2)C12CC3CC(CC(C3)C1)C2 [Compound 524],++++ (compound exhibited 75% or greater inhibition at 0.3 μM)
2,O=C(c1ccc(C(F)(F)F)cc1F)N1CCc2c(ncnc2NC(=O)C23CC4CC(CC(C4)C2)C3)C1 [Compound 438],++ (compound exhibited 25-50% inhibition at 0.3 μM)
3,COc1ccc(CN2CCc3c(ncnc3NC(=O)C34CC5CC(CC(C5)C3)C4)C2)c(OC)c1 [Compound 608],+ (compound exhibited 0-25% inhibition at 0.3 μM)
4,CC(C)CCN1CCc2c(ncnc2NC(=O)C23CC4CC(CC(C4)C2)C3)C1 [Compound 583],+ (compound exhibited 0-25% inhibition at 0.3 μM)
5,O=C(c1cccc(Cl)c1)N1CCc2c(ncnc2NC(=O)C23CC4CC(CC(C4)C2)C3)C1 [Compound 425],+ (compound exhibited 0-25% inhibition at 0.3 μM)
6,O=C(Nc1ncnc2c1CCN(S(=O)(=O)Cc1ccc(F)cc1)C2)C12CC3CC(CC(C3)C1)C2 [Compound 517],++ (compound exhibited 25-50% inhibition at 0.3 μM)
7,O=C(Nc1ncnc2c1CCN(S(=O)(=O)c1cc(C(F)(F)F)ccc1Cl)C2)C12CC3CC(CC(C3)C1)C2 [Compound 514],+ (compound exhibited 0-25% inhibition at 0.3 μM)
8,Cc1cccc(CN2CCc3c(ncnc3NC(=O)C34CC5CC(CC(C5)C3)C4)C2)c1 [Compound 606],+ (compound exhibited 0-25% inhibition at 0.3 μM)
9,O=C(Nc1ncnc2c1CCN(Cc1ccc3c(c1)OC(F)(F)O3)C2)C12CC3CC(CC(C3)C1)C2 [Compound 627],++++ (compound exhibited 75% or greater inhibition at 0.3 μM)
10,O=C(c1ccc(Cl)cc1Cl)N1CCc2c(ncnc2NC(=O)C23CC4CC(CC(C4)C2)C3)C1 [Compound 430],++ (compound exhibited 25-50% inhibition at 0.3 μM)
11,COc1ccc(S(=O)(=O)N2CCc3c(ncnc3NC(=O)C34CC5CC(CC(C5)C3)C4)C2)cc1 [Compound 487],++ (compound exhibited 25-50% inhibition at 0.3 μM)
12,O=C(Nc1ncnc2c1CCN(S(=O)(=O)c1ccc3c(c1)OCCO3)C2)C12CC3CC(CC(C3)C1)C2 [Compound 534],+++ (compound exhibited 50-75% inhibition at 0.3 μM)
13,O=C(c1ccc(F)cc1)N1CCc2c(ncnc2NC(=O)C23CC4CC(CC(C4)C2)C3)C1 [Compound 423],++ (compound exhibited 25-50% inhibition at 0.3 μM)

# Source: patent US7297700B2, “Bicycloheteroaryl compounds as P2X7 modulators and uses thereof” (Renovis, Inc., priority 2005, dated 2007)
